For 21 compounds, IC50 results are on record in patent US9249151B2, “Bis-amido pyridines” (Boehringer Ingelheim International GmbH, priority 2013, dated 2016).

Structures are written as SMILES.

The target of one experiment is BIR3 domain of human cIAP1 (amino acids 256 to 363; cIAP1 BIR3) (Homo sapiens (Human), UniProt Q13490). The experiment is described as follows: cIAP1 BIR3 binding assay (DELFIA).
BIR3 domain of human cIAP1 (amino acids 256 to 363; cIAP1 BIR3), sequence (Q13490 256-363): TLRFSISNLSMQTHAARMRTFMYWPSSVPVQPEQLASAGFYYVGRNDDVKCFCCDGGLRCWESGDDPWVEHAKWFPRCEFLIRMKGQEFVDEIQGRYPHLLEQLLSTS
Settings: not given
How it is done:
XIAP BIR3 and cIAP1 BIR3 Binding Assays (DELFIA)
Peptide […]-Lys(Biotin), representing the N-terminus of mature human SMAC (SMAC peptide), was used as interaction partner in the protein-peptide interaction assay.
BIR3 domains (10 nM) were incubated with SMAC peptide (10 nM) in assay buffer (50 mM Tris, 120 mM NaCl, 0.1% BSA, 1 mM DTT, 0.05% TritonX100) for one hour at room temperature in the presence of inhibitory compounds. The assay mixture was transferred to a streptavidin coated plate and incubated for one hour at room temperature to allow binding of the biotinylated peptide and associated BIR3 domains to the plate. After several washing steps Eu labeled anti-GST antibody (e.g. Perkin Elmer DELFIA Eu-N1-antiGST AD0250) was added to detect BIR3 domain-SMAC peptide interactions m according to Perkin Elmer's instructions. […] Time resolved Europium fluoresecence was measured in a Wallac Victor using Standard assay settings.
DELFIA assay results were plotted against compound concentrations and Software GraphPad Prizm was used to calculate half maximal inhibitory concentrations (IC50 values).
The IC50 is the concentration needed to halve the response being measured. With `CNC(C)C(=O)Nc1cc(-c2nc(C)nc3c(C)nn(C)c23)cc(NC(=O)c2ncc(Cl)cc2C)n1` (stereo not drawn) [Example 60, 5-chloro-3-methyl-N-{6-[2-(methylamino)propanamido]-4-{trimethyl-1H-pyrazolo-[4,3-d]pyrimidin-7-yl}-pyridin-2-yl}pyridine-2-carboxamide], the half-maximal inhibitory concentration (IC50) was 34 nM.

Still in this experiment, the particulars now being: BIR3 domain 10 nM, SMAC peptide 10 nM; values represent the (S)-isomers; * = racemic compound; read-out: cIAP1 BIR-3 IC50.
As for `CNC(C)C(=O)Nc1cc(-c2c(C)ccc3ncccc23)cc(NC(=O)c2cc(Cl)ccn2)n1` (stereo not drawn) [Example 42, 4-chloro-N-{6-[2-(methylamino)propanamido]-4-(6-methylquinolin-5-yl)pyridin-2-yl}pyridine-2-carboxamide], the IC50 is 1190 nM. As for `CNC(C)C(=O)Nc1cc(-c2c(C)ccc3ncccc23)cc(NC(=O)c2cccnn2)n1` (stereo not drawn) [Example 43, N-{6-[2-(methylamino)propanamido]-4-(6-methylquinolin-5-yl)pyridin-2-yl}pyridazine-3-carboxamide], the IC50 is 2600 nM.

With `CNC(C)C(=O)Nc1cc(-c2c(C)ccc3ncccc23)cc(NC(=O)c2ccc3cnccc3c2)n1` (stereo not drawn) [Example 44, N-{6-[2-(methylamino)propanamido]-4-(6-methylquinolin-5-yl)pyridin-2-yl}isoquinoline-6-carboxamide], the IC50 worked out at 3190 nM.

Regarding `CNC(C)C(=O)Nc1cc(-c2c(C)ccc3ncccc23)cc(NC(=O)c2cn(C)cn2)n1` (stereo not drawn) [Example 45, 1-methyl-N-{6-[2-(methylamino)propanamido]-4-(6-methylquinolin-5-yl)pyridin-2-yl}-1H-imidazole-4-carboxamide], the IC50 came out at 4940 nM.

For the compound `CNC(C)C(=O)Nc1cc(-c2c(C)ccc3ncccc23)cc(NC(=O)c2cc(-c3ccccc3)on2)n1` (stereo not drawn) [Example 46, N-{6-[2-(methylamino)propanamido]-4-(6-methylquinolin-5-yl)pyridin-2-yl}-5-phenyl-1,2-oxazole-3-carboxamide], the IC50 stood at 6330 nM. On to `CNC(C)C(=O)Nc1cc(-c2ccncc2C)cc(NC(=O)c2ccc(Cl)cn2)n1` (stereo not drawn) [Example 47, 5-chloro-N-{6-[2-(methylamino)propanamido]-4-(3-methylpyridin-4-yl)pyridin-2-yl}pyridine-2-carboxamide], for which the IC50 amounted to 17 nM. Consider `CNC(C)C(=O)Nc1cc(-c2cccc3nc(C)c(C)n23)cc(NC(=O)c2cc3c(cn2)COC3)n1` (stereo not drawn) [Example 48, N-(4-{2,3-dimethylimidazo[1,2-a]pyridin-5-yl}-6-[2-(methylamino)propanamido]pyridin-2-yl)-1H,3H-furo[3,4-c]pyridine-6-carboxamide], for which the IC50 was 1 nM. The same measure, in the same setting: next, `CNC(C)C(=O)Nc1cc(-c2cccc3nc(C)c(C)n23)cc(NC(=O)Cc2ccccc2)n1` (stereo not drawn) [Example 49, N-(4-{2,3-dimethylimidazo[1,2-a]pyridin-5-yl}-6-(2-phenylacetamido)pyridin-2-yl)-2-(methylamino)propanamide]: 5350 nM; `CNC(C)C(=O)Nc1cc(-c2cccc3nc(C)c(C)n23)cc(NC(=O)c2cc3ccccc3[nH]2)n1` (stereo not drawn) [Example 50, N-(4-{2,3-dimethylimidazo[1,2-a]pyridin-5-yl}-6-[2-(methylamino)propanamido]pyridin-2-yl)-1H-indole-2-carboxamide]: 348 nM; `CNC(C)C(=O)Nc1cc(-c2cccc3nc(C)c(C)n23)cc(NC(=O)c2ccc(OC)cn2)n1` (stereo not drawn) [Example 51, N-(4-{2,3-dimethylimidazo[1,2-a]pyridin-5-yl}-6-[2-(methylamino)propanamido]pyridin-2-yl)-5-methoxypyridine-2-carboxamide]: 1 nM. The same measure, in the same setting: to `CNC(C)C(=O)Nc1cc(-c2cncc3ccn(C)c23)cc(NC(=O)c2ccc(Cl)cn2)n1` (stereo not drawn) [Example 52, 5-chloro-N-(4-{1-methyl-1H-pyrrolo[3,2-c]pyridin-7-yl}-6-[2-(methylamino)propanamido]pyridin-2-yl)pyridine-2-carboxamide] belongs 1 nM; to `CNC(C)C(=O)Nc1cc(-c2cccc3cncc(C)c23)cc(NC(=O)c2ccc(Cl)cn2)n1` (stereo not drawn) [Example 53], 1 nM; to `CNC(C)C(=O)Nc1cc(-c2c(Cl)cnc3ccccc23)cc(NC(=O)c2ccc(Cl)cn2)n1` (stereo not drawn) [Example 54, 5-chloro-N-[4-(3-chloroquinolin-4-yl)-6-[2-(methylamino)propanamido]pyridin-2-yl]pyridine-2-carboxamide], 11 nM. On the same count and under the same terms, next, `Cc1cccc2ccn(-c3cc(NC(=O)c4ccc(Cl)cn4)nc(NC(=O)C(C)N)c3)c12` (stereo not drawn) [Example 55, N-[6-(2-aminopropanamido)-4-(7-methyl-1H-indol-1-yl)pyridin-2-yl]-5-chloropyridine-2-carboxamide]: 45 nM; `CC(N)C(=O)Nc1cc(Cl)cc(NC(=O)c2ccccn2)n1` (stereo not drawn) [Example 56, N-[6-(2-aminopropanamido)-4-chloropyridin-2-yl]pyridine-2-carboxamide]: 4600 nM; `Cc1ccc(C(=O)Nc2cccc(NC(=O)C(C)N)n2)nc1` (stereo not drawn) [Example 57, N-[6-(2-aminopropanamido)pyridin-2-yl]-5-methylpyridine-2-carboxamide]: 421 nM. On to `CNC(C)C(=O)Nc1cc(-c2nc(C)nc3c(C)c(C)n(C)c23)cc(NC(=O)c2ccc(Cl)cn2)n1` (stereo not drawn) [Example 59, 5-chloro-N-{6-[2-(methylamino)propanamido]-4-{tetramethyl-5H-pyrrolo[3,2-d]pyrimidin-4-yl}pyridin-2-yl}pyridine-2-carboxamide], for which the IC50 was 1 nM. For the compound `CNC(C)C(=O)Nc1cc(-c2ncnc3c(C)nn(C)c23)cc(NC(=O)c2ncc(Cl)cc2C)n1` (stereo not drawn) [Example 61, 5-chloro-N-(4-{1,3-dimethyl-1H-pyrazolo[4,3-d]pyrimidin-7-yl}-6-[2-(methylamino)-propanamido]pyridin-2-yl)-3-methylpyridine-2-carboxamide], the IC50 is 1 nM. On to `CNC(C)C(=O)Nc1cc(-c2nc(C)nc3c(C)nn(C)c23)cc(NC(=O)c2ncc(Cl)cc2F)n1` (stereo not drawn) [Example 62, 5-chloro-3-fluoro-N-{6-[2-(methylamino)propanamido]-4-{trimethyl-1H-pyrazolo-[4,3-d]pyrimidin-7-yl}-pyridin-2-yl)pyridine-2-carboxamide], for which the IC50 was 1 nM. In the case of `CNC(C)C(=O)Nc1cc(-c2nc(OC)nc3c(C)nn(C)c23)cc(NC(=O)c2ccc(Cl)cn2)n1` (stereo not drawn) [Example 63, 5-chloro-N-(4-{5-methoxy-1,3-dimethyl-1H-pyrazolo[4,3-d]pyrimidin-7-yl}-6-[2-(methylamino)-propanamido]pyridin-2-yl)pyridine-2-carboxamide], the IC50 turned out to be 55 nM.
